Consider two molecules from patent US20090092662A1, “LIPOSOME FORMULATIONS OF BORONIC ACID COMPOUNDS” (priority 2007, published 2009).

The structures appear in SMILES notation. Read-outs that look alike come from different tables or passages of the source.

In one data set the test system is lung cancer xenograft. Conditions: lung cancer xenograft model; cited from earlier work.
The conditions of data set [1]: cited from earlier work.
For another data set, the system named is tumor lines. Conditions: range of tumor lines, NCI in vitro screen; cited from earlier work.
In data set [2] the test system is human prostate cancer xenograft. Conditions: human prostate xenograft model; cited from earlier work.
The nature of data set [3]: ITC drug binding study of complexing reagents to bortezomib. The following applies: pH 9.5, 100 mM glycine, 30° C., bortezomib titrated into complexing reagent. How it is done: The binding of the various complexing reagents to bortazomib were investigated by isothermal titration calorimetry (VP-ITC, MicroCal, Northampton, Mass.) under controlled parameters. […] The pH level was checked twice and adjustments were made as necessary to within 0.2 units. The solutions were degassed for 10-15 min. […] The experiments were conducted at 30° C. […] Data processing to generate the binding parameters was performed using the software program provided by the ITC manufacture (Microcal origin v5.0).

On to `CC(C)C[C@H](NC(=O)[C@H](Cc1ccccc1)NC(=O)c1cnccn1)B(O)O` [bortezomib], for which the antitumor activity result (with lung cancer xenograft; in data set [2]) was “had antitumor activity” in each case. Moreover, the maximum tolerated dose is reported as 1.56 mg/m^2 in data set [1] (intravenous bolus on days 1, 4, 8, and 11 of a 3-week cycle); 1.3 mg/m^2 in data set [1] (intravenously once or twice weekly, patients with solid tumors). Also, the cytotoxicity entry in the data set on tumor lines is on record as “showed cytotoxicity against a range of tumor lines”.
In turn, `OCC(O)CNCC(O)C(O)C(OC1OC(CO)C(O)C(O)C1O)C(O)CO` (stereo not drawn) [Example 5] registered a K in data set [3] of 2366 mol⁻¹.
